“Also recorded” adds a separate entry of the source. * marks the point of attachment. Boc = CC(C)(C)OC(=O)*
Experiments:
rats subjected to MCAo = assay: Transient middle cerebral artery occlusion (MCAo): behavioral tests, neurological score; assay type: in vivo, rat; settings: for neuronal damage / neuroprotection in stroke model (tissue and behavioral): rat MCAo, summary statements
Source text: In certain embodiments, Male Sprague-Dawley rats (290-320 g; Charles River Lab, Wilmington, Mass., USA) are used for in vivo studies. For all surgical procedures, animals can be fasted and anesthesia can be induced with 3.5% isoflurane and 70% nitrous oxide and 30% oxygen. Animals can be orotracheally intubated; given atropine for secretions, pancuronium for immobilization; ventilated mechanically on a humidified mixture of 70% nitrous oxide, 1.0-1.5% isoflurane and a balance of oxygen. A femoral artery and vein can be catheterized for continuous blood pressure monitoring and periodic blood sampling for arterial gases and pH. PCO2 can be maintained at 35-40 mm Hg and P02 at 105-120 mm Hg by ventilator adjustments. Rectal temperature can be measured with a thermistor and maintained with a heating lamp at 37.0-37.5° C. Cranial (temporalis muscle) temperature also can be monitored and regulated with a separate warming lamp at 36.2-36.7° C.
The right MCA can be occluded for 2 h by intraluminal filament, as described previously (Belayev et al. 2011). Briefly, the right common carotid artery (CCA) and external carotid artery (ECA) can be exposed through midline neck incision, and then completely isolated from the surrounding nerves. The occipital branches of the ECA and pterygopalatine artery can be ligated. A 4-cm of 3-0 nylon filament, coated with poly-L-lysine can be advanced to the origin of MCA through the proximal ECA via internal carotid artery. The filament can be inserted 20 to 22 mm from the bifurcation of the CCA, according to the animal's body weight. The neck incision can then be closed, and the rats can be returned to their cages. […]
In certain embodiments, behavioral tests are conducted before, during MCAo (at 60 min), and then at 24 h, 48 h, 72 h, or 7 days after MCAo by an investigator blinded to the experimental groups. […] In embodiments, the severity of stroke injury is assessed by behavioral examination of each rat at 60 min after onset of MCAo. […]

Wnt5a = assay: SYBR green real-time PCR of Wnt5a mRNA in human primary RPE (hpRPE) cells under UOS; assay type: cell-based
Method: ARPE-19 cells, can be plated and grown in DMEM/F-12 containing 10% FBS and 1× penicillin/streptomycin at 37° C., 5% CO2, 99% relative humidity for 24 h. […] 15-LOX-1 deficient cells can be maintained in the same medium as ARPE-19 with the addition of 500 μg/mL Geneticin (Life Technologies Corporation, Carlsbad, Calif.). Transfection can be performed in all cases using Lipofectamine 2000 (Life Technologies Corporation, Carlsbad, Calif.) following the manufacturer's recommendations. […] Experiments with transfection efficiency that yielded less than 80% can be discarded. For siRNA, we used 6 μl of Lipofectamine 2000 per 50 pmol of siRNA per mL of incubation medium, and, for plasmids, we used 6 μl of Lipofectamine 2000 per 2 μg of plasmid per mL of incubation medium. Cells can be incubated for 5 hours at 37° C., 5% CO2 and 99% relative humidity. […] When siRNA/plasmid co-transfection is required, siRNA and plasmid-carrying transfection mixes can be prepared separately and added one after the other in the same well. Oxidative stress treatments can be performed using 600 (ARPE-19) or 1600 (hRPE) μM H2O2, along with 10 ng/mL TNFα, for the required time indicated in each experiment. The treatment we used employed the low serum (0.5% serum) without hFGF. Treatment to induce uncompensated oxidative stress (UOS) can be performed after 8 hours of low-serum medium incubation unless specifically noted. […]

FZD5 = assay: SYBR green real-time PCR of Wnt5a receptors/co-receptors in RPE cells under UOS; assay type: cell-based, human
Method: Cell samples, total RNA was extracted by RNeasy Mini Kit (QIAGEN) following manufacturer's protocol. The purity and concentration of RNA were determined by NanoDrop ND-1000 Spectrophotometer (Thermo Fisher Scientific). cDNA first strand was obtained from one microgram of total RNA using iScript™ Reverse Transcription Supermix (Bio-Rad Laboratories, CA, USA). The resulting cDNA was used as template SYBR-green or Eva-green based real-time PCR quantification using SsoAdvance Universal Supermix (Bio-Rad Laboratories). Data was collected and analyzed using CFX Manager 3.0 software, the ΔΔCt method. Melting curve was produced for every run to assure a unique amplified product per primer set.

**Q.** “t-Boc-NH-Met-Asp-Gly-Cys-Glu-Leu-CO2H (Boc-MDGCEL-OH) [Box5]” was tested. Which “neuronal damage / neuroprotection in stroke model (tissue and behavioral)” value (rats subjected to MCAo) did it give?
**A.** The value was “significantly decreased; also recorded: beneficious at the behavioral level as well as in the reduction of stroke damage; also recorded: protection at the neurological/behavioral level as well as by reduction of stroke damage”.

**Q.** And the “neuronal damage / neuroprotection in stroke model (tissue and behavioral)” value (rats subjected to MCAo; listed as BOX5)?
**A.** Its value is “remarkable neuroprotection”.

**Q.** What about the “neurological score (total, tactile and proprioceptive placing)” value (rats subjected to MCAo; rat, 2 h MCAo, IV 1 h later, DHA 5 mg/kg or Box5 (1 mg/kg; 400 μg), days 1, 2, 3, 7, versus saline) of the same compound?
**A.** Its value is “remarkable similarity to that obtained by DHA treatment; also recorded: improvement in neurological score; also recorded: resembling DHA treatment; also recorded: neurological protection remarkable similar to that obtained by DHA treatment”.

**Q.** For CC/C=C\C[C@H](O)\C=C/C=C/C=C/[C@H](O)C/C=C\C/C=C\CCC(=O)O [NPD1, 10R,17S-dihydroxy-docosa-4Z,7Z,11E,13E,15Z,19Z-hexaenoic acid], which “Wnt5a transcription (mRNA)” value (Wnt5a; hpRPE cells, UOS 1,600 μM H2O2 and 10 ng/ml TNFα, 6 hours) is on record?
**A.** Its value is “down regulated Wnt5a transcription; also recorded: decreased Wnt5a expression”.

**Q.** And the “increase of Wnt5a expression on cRel silencing” value (Wnt5a; hpRPE, UOS plus NPD1, 12-fold in control, 8-fold in UOS)?
**A.** Its value is 4 fold.

**Q.** And the FZD5 expression (FZD5; ARPE-19 cells, UOS gives 3-fold increase (FIG. 1F))?
**A.** Its FZD5 expression is “counteracted this effect”.

**Q.** What about the “FZD5 mRNA” value (FZD5; hpRPE exposed to UOS, UOS gives 2-fold rise) of the same compound?
**A.** Its value is “downregulated”.

**Q.** And the ROR1 expression (FZD5; reduced under UOS)?
**A.** Its ROR1 expression is “re-established”.

— patent publication US20220119446A1, “BIOMARKERS AND TREATMENT OF NEURONAL INJURY AND NEURODEGENERATION” (Board of Supervisons of Louisiana State University and …, priority 2018, published 2022)
